Experimental data published in patent US11571413B2, “Nicotinamide riboside treatments of domesticated meat animals” (Kansas State University Research Foundation, priority 2017, dated 2023).

Assays:
growing pigs = test: Oral NR for 7 days in growing pigs: average daily gain and loin eye area (Example III); format: in vivo, pig
Procedure: Nine growing pigs were blocked by bodyweight (BW) and placed in metabolism crates. After a 3-day acclimation period, pigs within each BW block were randomly assigned to a treatment (n=3 pigs/treatment). Treatments comprised pigs supplemented 0, 15, or 30 mg/kg BW NR for 7 days. Pigs were allowed ad libitum access to a standard growing diet and water. Treatments were administered daily at 8 a.m. by mixing NR in 20 mL of Karo® dark syrup and orally drenching the pigs. On day 0 and 3 of the trial, muscle biopsies of the LL were taken for NAD+ analysis using standard procedures. At day 7, pigs were transported to the Kansas State University Meats Laboratory and euthanized by a captive penetrating bolt to the brain, followed by exsanguination. Following harvest procedures, 3 g of the LL were collected for NAD+ analysis. Twenty-four hours after harvest, the whole LL not sampled at harvest was removed from the carcass and aged 10 days. After aging, the LL was cut into 6 chops for retail color stability analysis, including 6-day surface oxy- and metmyoglobin percentage, 6-day objective and subjective color panel evaluation, and day 4 and 6 metmyoglobin reducing ability (MRA).

[1] = test system: Fertilized Cobb 500 broiler eggs; test: Cyclin D mRNA expression by real-time PCR (second Example VI); format: in vivo, chicken; conditions: 250, 500 mM or 1 M NR; hatched chicks
Procedure: The methods of Burnett et al. (2016) were followed with minor modifications. Briefly, nucleic acids were extracted and purified from 200 mg of the left biceps femoris muscle using Trizol (Life Technologies), followed by subjecting the nucleic acids to PureLink™ RNA
Mini Kit (Life Technologies, Carlsbad, Calif.). Total RNA concentration and 260 nm/280 nm ratio were quantified and extractions yielding RNA with a ratio greater than 1.9 were used for real-time PCR analysis. Trace genomic DNA contamination and reverse transcription were conducted on 50 ng of total RNA using a High-Capacity cDNA Reverse Transcription Kit (Life Technologies). Gene specific primers were designed, efficiencies determined, and validated for qPCR (Table 7). Complementary DNA was amplified in duplicate for each sample using PerfeCTa SYBR Green FastMix (Quanta Biosciences, Gaithersburg, Md.) and the appropriate gene specific forward and reverse primers (20 pM) in an Eppendorff Mastercycler realplex2 S PCR System (Eppendorf North America, Hauppauge, N.Y.). Thermal cycling parameters were initial heating at 50° C. for 2 min, denaturing at 95° C. for 10 min, 50 cycles of 15 s at 95.0° C., annealing at 60.5° C. for 30 s, and extension for 20 s at 68.0° C. A final dissociation step was included at 95° C. for 15 s, 60° C. for 30 s, and 95° C. for 15 s. Expression was normalized to 18S ribosomal RNA expression (ΔCt, where Ct refers to the threshold cycle), and calibrated to control chick (0 mM) mRNA expression (ΔΔCt). Gene fold change expression levels were calculated as 2^−ΔΔCt as previously described by Livak and Schmittgen (2001).

NC(=O)c1ccc[n+]([C@@H]2O[C@H](CO)[C@@H](O)[C@H]2O)c1 [Nicotinamide riboside, nicotinamide riboside]
Loin eye area (LEA) vs 0 mg/kg (growing pigs; 15 mg/kg BW oral daily): did not differ | Better ADG compared to pigs in the other two treatments (numerical trend) (growing pigs; 30 mg/kg BW oral daily): 4.4% | Larger loin eyes than pigs fed 0 mg/kg NR (growing pigs; 30 mg/kg BW oral daily): 52% | Larger loin eyes than pigs fed 15 mg/kg NR (growing pigs; 30 mg/kg BW oral daily): 48% | Cyclin D1 and 2 mRNA expression [1]: no treatment effects | Cyclin D3 mRNA expression, control vs all NR treatments [1]: Control chicks had greater cyclin D3 expression | Greater cyclin D3 mRNA expression of control chicks than NR chicks (average) [1]: 38%
